Laboratory results: ChEMBL document CHEMBL1201862, “PubChem BioAssay data set” (2004)
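In this assay, cells in 96-well plates receive the compound at five concentrations for 48 hours. Endpoints are linearly interpolated between the surrounding concentrations. GI50: concentration for 50% inhibition of growth.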 Activity calls are given as the source filed them. Cut-off read from the data, not from the text of the source: active = GI50 up to about 1.1 µM and inactive = higher.

Experiments:
Assay in all cases: NCI tumour cell line growth inhibition, 48 h
[1] = test system: SNB-78
[2] = test system: M19-MEL
[3] = test system: KM-20L2
[4] = test system: XF498
[5] = test system: RXF 631
[6] = test system: DLD-1
[7] = test system: LXFL 529
[8] = test system: MDA-N
[9] = test system: BT-549

Measured: GI50

CC(=O)OCC1=C(C(=O)O)C(c2ccc3c(c2)OCO3)c2cc3c(cc2O1)OCO3 (stereo not drawn)
inactive: [1] > 100 µM | [2] > 100 µM | [3] > 100 µM | [4] > 100 µM | [5] > 100 µM | [6] > 100 µM

O=C(NCCc1ccccc1)C1C(=O)C(=O)N(CCc2ccccc2)C1=O (stereo not drawn)
inactive: [1] > 100 µM | [2] > 100 µM | [3] > 100 µM | [4] > 100 µM | [7] > 100 µM | [5] > 100 µM | [6] > 100 µM

Cc1c(C(=O)C/C(=N/NC(=O)CC#N)C(N)=O)[n+]([O-])c2ccccc2[n+]1[O-]
inactive: [1] 88.3 µM | [2] 21.8 µM | [3] 45.2 µM | [4] > 100 µM | [7] 74.1 µM | [5] 87.3 µM | [6] 29.1 µM

O=c1c(C(c2ccc(Cl)cc2)c2c(O)c3ccccc3n(-c3ccccc3)c2=O)c(O)c2ccccc2n1-c1ccccc1
inactive: [1] 48.8 µM | [2] 48.1 µM | [3] 37.6 µM | [4] 18.8 µM | [7] 26.5 µM | [5] 19.1 µM | [6] 7.08 µM

CC(=O)N(C)C=C1C(=O)N(C)C(=O)N(C)C1=O
inactive: [2] > 100 µM | [3] > 100 µM | [4] > 100 µM | [7] > 100 µM | [5] > 100 µM | [6] > 100 µM

COc1ccc2c(c1O)C(=O)C(CCC(=O)O)CC2 (stereo not drawn)
inactive: [1] > 100 µM | [2] > 100 µM | [3] > 100 µM | [4] > 100 µM | [7] > 100 µM | [5] > 100 µM | [6] > 100 µM

O=P(Nc1ccccc1)(Oc1ccccc1)N(CCCl)CCCl (stereo not drawn)
inactive: [1] > 100 µM | [2] > 100 µM | [3] > 100 µM | [5] > 100 µM | [6] > 100 µM

C[C@]12C/C(=C/O)C(=O)C(O)=C1CC[C@@H]1C2CC[C@@]2(C)C1CC[C@@H]2O (stereo partly drawn)
inactive: [1] 19.7 µM | [2] 21.2 µM | [3] 22.6 µM | [4] 17.6 µM | [7] 16.2 µM | [5] 20.6 µM

CN(C)CCCNc1ccc2ncn3c4ccc(O)cc4c(=O)c1c23
inactive: [1] 9.73 µM | [2] 1.53 µM | [3] 1.59 µM | [4] 3.83 µM | [7] 1.87 µM | [8] 4.48 µM | [6] 1.4 µM | [9] 17.3 µM
active: [5] 0.318 µM

NC(=O)c1ncn2c1NCC1OC2C(O)C1O (stereo not drawn)
inactive: [1] > 100 µM | [2] > 100 µM | [3] > 100 µM | [4] > 100 µM | [7] > 100 µM | [5] > 100 µM | [6] > 100 µM

COC(=O)C1=C(O)c2cc(OC)c(OC)c(OC)c2[C@H](c2cc(OC)c(OC)c(OC)c2)C1C(=O)OC (stereo partly drawn)
inactive: [1] 32.1 µM | [3] 18.2 µM | [4] 51.8 µM | [7] 31.1 µM | [5] 41.7 µM | [6] 45.1 µM
